Source: patent US20180201592A1, “2-AMINO-1,3,4-THIADIAZINE AND 2-AMINO-1,3,4-OXADIAZINE BASED ANTIFUNGAL AGENTS” (F2G Limited, priority 2015, published 2018)
≈ marks a conversion by molar mass, not a printed value. Read-outs that look alike come from different tables or passages of the source.

Tests used:
Aspergillus fumigatus = assay: Minimum inhibitory concentration, YAG medium; type: cell-based; conditions: banded MIC grade
Experimental: (§1) Between 1 and 5 mgs of compound were accurately weighed out into a sterile Eppendorf tube. The compound was dissolved in DMSO to give a solution containing 5 mg/mL. Tubes were stored at −20° C. until required.
(§2) On the day of testing thawed solutions were vortex mixed to ensure homogeneity. 30 μL of solution was removed and added to 570 μL of sterile water in a separate sterile Eppendorf. The thoroughly mixed solution was used to prepare a series of doubling dilutions in water, in a deep well plate. Thirteen replicate plates were prepared using a Minitrak by aspirating 20 μL from each well into eleven clear polystyrene 96 well plates.
(§3) Spores of Aspergillus spp. (Aspergillus fumigatus [two strains], Aspergillus terreus [two strains], Aspergillus niger and Aspergillus flavus) were harvested from cultures grown on Sabarauds agar for 5 days, and resuspended in PBS/Tween 80 to approx 1×10^7 cfu/mL. Each organism suspension was diluted in YAG medium (1% glucose, 1% ammonium chloride and 0.5% yeast extract) to 0.5-2×10^4cfu/mL. 80 μL of an organism suspension was added to each well of the plate containing drug dilutions.
(§4) This typically produced MIC plates with a drug range 50-0.05 mg/L and organism inocula of 1-2×10^4 cfu/mL for Aspergillus spp. All plates were incubated for 24 hrs at 35° C. Growth was assessed by monitoring the optical density at 485 nm for each well. The MIC of a compound is the lowest drug concentration that inhibits growth of an organism by >70% compared with a drug free control. MICs are recorded as mg/L. In cases where the MIC of an organism is […] the MIC is repeated using a concentration range of 0.5-0.0005 mg/L.

A. fumigatus 210 = assay: Minimum inhibitory concentration, YAG medium; type: cell-based, Aspergillus fumigatus; conditions: banded MIC grade
Experimental: as §1, §2, §3, §4

A. terreus 49 = assay: Minimum inhibitory concentration, YAG medium; type: cell-based, Aspergillus terreus; conditions: banded MIC grade
Experimental: (§5) The compound was dissolved in DMSO to give a solution containing 5 mg/mL. Tubes were stored at −20° C. until required. On the day of testing thawed solutions were vortex mixed to ensure homogeneity. 30 μL of solution was removed and added to 570 μL of sterile water in a separate sterile Eppendorf. The thoroughly mixed solution was used to prepare a series of doubling dilutions in water, in a deep well plate. Thirteen replicate plates were prepared using a Minitrak by aspirating 20 μL from each well into eleven clear polystyrene 96 well plates. Spores of Aspergillus spp. […] All plates were incubated for 24 hrs at 35° C. Growth was assessed by monitoring the optical density at 485 nm for each well. […] MICs are recorded as mg/L.

Aspergillus flavus = assay: Minimum inhibitory concentration, YAG medium; type: cell-based; conditions: banded MIC grade
Experimental: as §5

Aspergillus niger = assay: Minimum inhibitory concentration, YAG medium; type: cell-based; conditions: banded MIC grade
Experimental: as §5

Aspergillus terreus = assay: Minimum inhibitory concentration, YAG medium; type: cell-based; conditions: banded MIC grade
Experimental: as §5

C. albicans = assay: Minimum inhibitory concentration, RPMI medium; type: cell-based; conditions: banded MIC grade; for MIC: Candida albicans, RPMI media
Experimental: as §5, with “Assays were also performed in RPMI medium (Roswell Park Memorial Media 1640). To perform MIC tests in this medium, dilutions” for “Spores”, “compounds are prepared in microtitre plates as described above.” for “Aspergillus spp.”, “24-48” for “24”, “The following organisms were tested: […]” for “MICs are recorded as mg/L.”

C. parapsilosis = assay: Minimum inhibitory concentration, RPMI medium; type: cell-based; conditions: banded MIC grade; for MIC: Lodderomyces parapsilosis, RPMI media
Experimental: as §5, with “Assays were also performed in RPMI medium (Roswell Park Memorial Media 1640). To perform MIC tests in this medium, dilutions” for “Spores”, “compounds are prepared in microtitre plates as described above.” for “Aspergillus spp.”, “24-48” for “24”, “The following organisms were tested: […]” for “MICs are recorded as mg/L.”

C. tropicalis = assay: Minimum inhibitory concentration, RPMI medium; type: cell-based; conditions: banded MIC grade
Experimental: as §5, with “Assays were also performed in RPMI medium (Roswell Park Memorial Media 1640). To perform MIC tests in this medium, dilutions” for “Spores”, “compounds are prepared in microtitre plates as described above.” for “Aspergillus spp.”, “24-48” for “24”, “The following organisms were tested: […]” for “MICs are recorded as mg/L.”

SMILES	MIC grade, A. FUMIGATUS, YAG media (Aspergillus fumigatus)	MIC grade, A. FUMIGATUS 210, YAG media (A. fumigatus 210)	MIC grade, A. TERREUS 49, YAG media (A. terreus 49)	MIC grade, A. FLAVUS, YAG media (Aspergillus flavus)	MIC grade, A. NIGER, YAG media (Aspergillus niger)	MIC grade, A. TERREUS, YAG media (Aspergillus terreus)	MIC grade, C. ALBICANS, RPMI media (C. albicans)	MIC grade, C. PARAPSILOSIS, RPMI media (C. parapsilosis)	MIC grade, C. TROPICALIS, RPMI media (C. tropicalis)	MIC (Aspergillus fumigatus; Aspergillus fumigatus, YAG media) [µg/mL]	MIC (A. fumigatus 210; Aspergillus fumigatus, 210, YAG media) [µg/mL]	MIC (A. terreus 49; Aspergillus terreus, 49, YAG media) [µg/mL]	MIC (Aspergillus flavus; Aspergillus flavus, YAG media) [µg/mL]	MIC (Aspergillus niger; Aspergillus niger, YAG media) [µg/mL]	MIC (Aspergillus terreus; Aspergillus terreus, YAG media) [µg/mL]	MIC (C. albicans; read-out: MIC grade C. ALBICANS) [µg/mL]	MIC (C. albicans; read-out: MIC grade, C. ALBICANS, RPMI media) [µg/mL]	MIC (C. parapsilosis; read-out: MIC grade C. PARAPSILOSIS) [µg/mL]	MIC (C. parapsilosis; read-out: MIC grade, C. PARAPSILOSIS, RPMI media) [µg/mL]	MIC (C. tropicalis; Candida tropicalis, RPMI media) [µg/mL]
CC(C)OCCC1=NN=C(N)SC1	4 (4: <0.2 mg/L)	1 (1: ≥5 mg/L)	2 (2: 1-5 mg/L)	1 (1: ≥5 mg/L)	1 (1: ≥5 mg/L)	2 (2: 1-5 mg/L)	1 (1: ≥20 mg/L)	3 (3: 1-5 mg/L)	1 (1: ≥20 mg/L)	–	–	–	–	–	–	–	–	–	–	–
NC1=NNC2=C(CCCC2)S1	2 (2: 1-5 mg/L)	3 (3: 0.2-1 mg/L)	2 (2: 1-5 mg/L)	1 (1: ≥5 mg/L)	2 (2: 1-5 mg/L)	2 (2: 1-5 mg/L)	1 (1: ≥20 mg/L)	1 (1: ≥20 mg/L)	1 (1: ≥20 mg/L)	–	–	–	–	–	–	–	–	–	–	–
Cc1ccc(C2=NN=C(N)SC2)cc1	3 (3: 0.2-1 mg/L)	3 (3: 0.2-1 mg/L)	3 (3: 0.2-1 mg/L)	3 (3: 0.2-1 mg/L)	3 (3: 0.2-1 mg/L)	2 (2: 1-5 mg/L)	1 (1: ≥20 mg/L)	2 (2: 5-20 mg/L)	1 (1: ≥20 mg/L)	–	–	–	–	–	–	–	–	–	–	–
CN1N=C(N)SC=C1c1ccc(Cl)c(Cl)c1 [5-(3,4-dichlorophenyl)-4-methyl-1,3,4-thiadiazin-2-amine]	–	–	–	–	–	–	–	–	–	1 to 5 (≈ 3.65 to 18.2 µM)	1 to 5 (≈ 3.65 to 18.2 µM)	0.2 to 1 (≈ 0.729 to 3.65 µM)	≥ 5	1 to 5 (≈ 3.65 to 18.2 µM)	1 to 5 (≈ 3.65 to 18.2 µM)	5 to 20 (≈ 18.2 to 72.9 µM)	≥ 20	≥ 20	≥ 20	≥ 20
Cc1ccc(OCCC2=NN=C(N)SC2)cc1	3 (3: 0.2-1 mg/L)	4 (4: <0.2 mg/L)	3 (3: 0.2-1 mg/L)	3 (3: 0.2-1 mg/L)	3 (3: 0.2-1 mg/L)	3 (3: 0.2-1 mg/L)	1 (1: ≥20 mg/L)	4 (4: <1 mg/L)	2 (2: 5-20 mg/L)	–	–	–	–	–	–	–	–	–	–	–
NC1=NN=C(CCOc2ccccc2)CS1	4 (4: <0.2 mg/L)	4 (4: <0.2 mg/L)	3 (3: 0.2-1 mg/L)	3 (3: 0.2-1 mg/L)	3 (3: 0.2-1 mg/L)	4 (4: <0.2 mg/L)	3 (3: 1-5 mg/L)	4 (4: <1 mg/L)	2 (2: 5-20 mg/L)	–	–	–	–	–	–	–	–	–	–	–
COCCCCOCCC1=NN=C(N)SC1	3 (3: 0.2-1 mg/L)	3 (3: 0.2-1 mg/L)	3 (3: 0.2-1 mg/L)	3 (3: 0.2-1 mg/L)	3 (3: 0.2-1 mg/L)	3 (3: 0.2-1 mg/L)	3 (3: 1-5 mg/L)	3 (3: 1-5 mg/L)	2 (2: 5-20 mg/L)	–	–	–	–	–	–	–	–	–	–	–
NC1=NN=C(CCCCOCc2ccccc2)CS1	4 (4: <0.2 mg/L)	4 (4: <0.2 mg/L)	4 (4: <0.2 mg/L)	4 (4: <0.2 mg/L)	4 (4: <0.2 mg/L)	4 (4: <0.2 mg/L)	4 (4: <1 mg/L)	4 (4: <1 mg/L)	4 (4: <1 mg/L)	–	–	–	–	–	–	–	–	–	–	–
CCCCOC(=O)CC1=NN=C(N)SC1	2 (2: 1-5 mg/L)	3 (3: 0.2-1 mg/L)	3 (3: 0.2-1 mg/L)	2 (2: 1-5 mg/L)	3 (3: 0.2-1 mg/L)	2 (2: 1-5 mg/L)	1 (1: ≥20 mg/L)	3 (3: 1-5 mg/L)	1 (1: ≥20 mg/L)	–	–	–	–	–	–	–	–	–	–	–
CCCCOC(=O)c1ccc(C2=NN=C(N)SC2)cc1	3 (3: 0.2-1 mg/L)	3 (3: 0.2-1 mg/L)	2 (2: 1-5 mg/L)	3 (3: 0.2-1 mg/L)	3 (3: 0.2-1 mg/L)	2 (2: 1-5 mg/L)	1 (1: ≥20 mg/L)	1 (1: ≥20 mg/L)	1 (1: ≥20 mg/L)	–	–	–	–	–	–	–	–	–	–	–
Cc1cccc(C2=NN=C(N)SC2)c1	1 (1: ≥5 mg/L)	1 (1: ≥5 mg/L)	2 (2: 1-5 mg/L)	1 (1: ≥5 mg/L)	2 (2: 1-5 mg/L)	2 (2: 1-5 mg/L)	1 (1: ≥20 mg/L)	1 (1: ≥20 mg/L)	1 (1: ≥20 mg/L)	–	–	–	–	–	–	–	–	–	–	–
N#Cc1ccc(COCCC2=NN=C(N)SC2)cc1	4 (4: <0.2 mg/L)	4 (4: <0.2 mg/L)	4 (4: <0.2 mg/L)	3 (3: 0.2-1 mg/L)	4 (4: <0.2 mg/L)	4 (4: <0.2 mg/L)	2 (2: 5-20 mg/L)	2 (2: 5-20 mg/L)	1 (1: ≥20 mg/L)	–	–	–	–	–	–	–	–	–	–	–
CCc1ccc(OCCCCCC2=NN=C(N)SC2)cc1	3 (3: 0.2-1 mg/L)	3 (3: 0.2-1 mg/L)	4 (4: <0.2 mg/L)	4 (4: <0.2 mg/L)	4 (4: <0.2 mg/L)	4 (4: <0.2 mg/L)	4 (4: <1 mg/L)	4 (4: <1 mg/L)	4 (4: <1 mg/L)	–	–	–	–	–	–	–	–	–	–	–
NC1=NN=C(CC(=O)OCc2ccccc2)CS1	1 (1: ≥5 mg/L)	1 (1: ≥5 mg/L)	2 (2: 1-5 mg/L)	1 (1: ≥5 mg/L)	2 (2: 1-5 mg/L)	2 (2: 1-5 mg/L)	1 (1: ≥20 mg/L)	2 (2: 5-20 mg/L)	1 (1: ≥20 mg/L)	–	–	–	–	–	–	–	–	–	–	–
CC(C)OC(=O)CC1=NN=C(N)SC1	–	–	–	–	–	–	1 (1: ≥20 mg/L)	2 (2: 5-20 mg/L)	1 (1: ≥20 mg/L)	–	–	–	–	–	–	–	–	–	–	–
